One assay deals with 3T3-L1 preadipocytes. The assay is described as follows: MTT lipid-lowering (adipocyte-degrading) activity analysis on 3T3-L1 preadipocyte line. Format: cell-based. As to conditions: for adipocyte-degrading (adipocyte lysis) activity compared with positive controls H-LEP and Ros: preadipocytes stage, early differentiation stage D0-D2 and mature adipocyte stage D9, PEP-E 10^−6M, Ros 0.5 μM. The method, then:
Lipid degradation activity of the synthesized leptin active peptide having CD-loop and helix E region mutations is analyzed on a cellular level by taking a 3T3-L1 preadipocyte line as a model. Specific operations are as follows:
a. leptin active peptide having CD-loop and helix E region mutations (PEP-E): diluted to 10^−3M with purified water and preserved at −20 degree C. for later use. After an experiment is started, working concentrations have 3 concentration gradients, that is, 10^−6M, 10−9M and 10^−11M;
b. positive control 1: H-LEP recombinant human-derived leptin protein (10221-HNAE, Beijing Sino Biological Inc.), diluted to 10^−6M with purified water and preserved at −20 degree C. for later use. After an experiment is started, the working concentration is 10^−9M.
c. positive control 2: Ros rosiglitazone, R2408, Sigma), diluted to a stock solution with a concentration of 2518 μM with DMSO and preserved at −20 degree C. for later use. After an experiment is started, the stock solution is diluted to a working solution of 0.5 μM with cell culture fluid.
d. negative control (Control): equivalent quantity of PBS
(1) inoculating 3T3-L1 preadipocytes in coming cell bind 96-well plates (totally inoculated with 3 plates, respectively plate a, plate b and plate c), wherein the inoculation density is 4500 cells/well; and marking, and standing and culturing at 37 degree C. in a 5% CO2 incubator. Each sample of each plate is operated repeatedly for 3 times, and the whole experiment is repeated for 3 times;
(2) continuously culturing for 48 hours after the cells are merged to 100% (enabling the cells to exit from a growth cycle, and starting induced differentiation.); and
i, taking out the plate a, respectively adding different amounts of leptin active peptide having CD-loop and helix E region mutations (PEP-E) to enable the working concentrations to be respectively 3 concentration gradients, that is, 10^−6M, 10^−9M and […], setting 2 positive controls, a negative control (PBS) and a blank control (3 repeated holes are set for each sample), and continuously standing and culturing at 37 degree C. in the 5% CO2 incubator.
ii, when culturing to 45 hours (that is, 3 hours before the end of drug treatment), taking out the plate a, and measuring MTT (preadipocytes). Specific operations: adding 20 μL of 5 mg/mL of MTT solution into each well, continuously standing and culturing at 37 degree C. in the 5% CO2 incubator for 3 hours, sucking and discarding the culture solution in the wells, adding 150 μL of DMSO into each well, horizontally shaking for 10 min, detecting a light absorption value at 492 nm by a microplate reader, and drawing a growth curve. […]
ii, when culturing to 45 hours (that is, 3 hours before the end of drug treatment), taking out the plate b, and measuring MTT (at the early differentiation stage, D0-D2). Specific operations: adding 20 μL of 5 mg/mL of MTT solution into each well; continuously standing and culturing at 37 degree C. in the 5% CO2 incubator for 3 hours, sucking and discarding the culture solution in the wells; adding 150 μL of DMSO into each well, horizontally shaking for 10 min, detecting a light absorption value at 492 nm by a microplate reader, and drawing a growth curve; […]

The conditions of assay [1]: cited from earlier work.

Entries after “also recorded” stand apart in the source; their conditions may differ.

We go through three substances from patent US10342854B2, “Leptin active peptide having cd loop and E helix region mutations, coding gene thereof, and application thereof” (SHANGHAI YUANXIN BIOCHEMICAL SCIENCE AND TECHNOLOGY CO. LTD., priority 2015, dated 2019).

In the case of “H-LEP: recombinant human-derived leptin protein (10221-HNAE, Beijing Sino Biological Inc.) [reference compound]”, the “adipocyte lysis activity of positive control vs. negative control” value with 3T3-L1 preadipocytes (H-LEP 10^−9M, Ros 0.5 μM vs. PBS, P<0.05) is “obviously better than that of the negative control”.

For the substance “SCHLHWAPGLETLDSGVQEASGY (An amino acid sequence of the leptin active peptide having CD-loop and helix E region mutations) [PEP-E]”, the “dependence of lipid-lowering activity on concentration and cell differentiation period” value with 3T3-L1 preadipocytes (10^−6M, 10^−9M, 10^−11M, preadipocytes, D0-D2, D9) was “obvious concentration dependence and dependence in a cell differentiation period”. Besides, the “adipocyte-degrading (adipocyte lysis) activity compared with positive controls H-LEP and Ros” value in the assay on 3T3-L1 preadipocytes (10^−9M, 10^−11M, H-LEP 10^−9M, P<0.05) is “obviously better than that of the H-LEP; also recorded: obviously better than that of the Ros”; in the assay on 3T3-L1 preadipocytes (10^−9M, 10^−11M, H-LEP 10^−9M, P<0.05, listed as leptin active peptide having CD-loop and helix E region mutations), “obviously better than that of positive control-human-derived leptin protein (H-LEP) and a commercially available drug rosiglitazone (Ros,)”. The “lipid-lowering activity: stage and concentration of optimal effect” value with 3T3-L1 preadipocytes (three stages, three concentrations compared) was “optimal effect at the D0-D2 stage when the concentration is 10^−6M”.

As to “wild type human-derived leptin protein: leptin protein given to obese patients in the first human experiment”, the “weight loss effect in obese patients” value in assay [1] (73 tested obese patients) is recorded as “most of the patients do not have an obvious weight loss effect”. In addition, the weight loss in assay [1] (only 2 of 73 patients, within 24 weeks) is reported as 35 pounds.
